From US8455475B2 (Gruenenthal GmbH, priority 2009, dated 2013)

Target: T1, rat B1R (bradykinin receptor 1) (Rattus norvegicus, UniProt P97583)
T1 construct: expressed in transfected cells; host or cells: CHO K1 cells
T1 sequence (P97583 1-337): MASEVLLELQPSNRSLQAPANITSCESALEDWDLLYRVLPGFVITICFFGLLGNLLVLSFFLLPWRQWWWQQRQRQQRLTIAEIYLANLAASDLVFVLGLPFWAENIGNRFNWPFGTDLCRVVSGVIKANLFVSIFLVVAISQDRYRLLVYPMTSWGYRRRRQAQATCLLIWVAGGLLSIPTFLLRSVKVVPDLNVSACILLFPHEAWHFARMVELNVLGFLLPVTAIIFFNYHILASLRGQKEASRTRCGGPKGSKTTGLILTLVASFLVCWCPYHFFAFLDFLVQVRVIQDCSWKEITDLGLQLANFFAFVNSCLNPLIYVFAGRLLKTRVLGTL
Assay: FLIPR Ca2+ assay (Fluo-4) on CHO K1 cells stably transfected with the B1R gene of the rat (rB1R cells): % inhibition at 10 μM / IC50, agonist Des-Arg9-bradykinin
Type: cell-based
Conditions: CHO-K1, rat B1R
Method in brief: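 Stably transfected CHO K1 cells loaded with Fluo-4 and read on FLIPR (λex 488, λem 540 nm; peak fluorescence). Test substance (10 μM) added first, then after 10–20 min the agonist at EC80; % inhibition versus maximum achievable inhibition. IC50 from several concentrations, n=2–3, N≥2.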

Row | Compound | inhibition at 10 µM [%]
1 | CN(C1CCc2ccc(C(=O)N3CCC4(CC3)CCN(c3ccncc3)CC4)cc21)S(=O)(=O)Cc1ccccc1F (centres unmarked) [IND_CC-348, 1-(2-Fluorophenyl)-N-methyl-N-[6-(9-pyridin-4-yl-3,9-diazaspiro[5.5]undecane-3-carbonyl)-2,3-dihydro-1H-inden-1-yl]-methanesulfonic acid amide] | 102
2 | O=C(NC1CCc2ccc(C(=O)N3CCC4(CCN(CCCc5cccc(F)c5)CC4)CC3)cc21)c1cc(C(F)(F)F)ccc1Cl (centres unmarked) [IND_CC-702, 2-Chloro-N-[6-[9-[3-(3-fluorophenyl)-propyl]-3,9-diazaspiro[5.5]undecane-3-carbonyl]-2,3-dihydro-1H-inden-1-yl]-5-(trifluoromethyl)-benzamide] | 80
3 | Cc1cccc(Cl)c1C(=O)NC1CCc2ccc(C(=O)N3CCC4(CCN(Cc5c(C)nn(C)c5C)CC4)C3)cc21 (centres unmarked) [IND_CC-761, 2-Chloro-6-methyl-N-[6-[8-[(1,3,5-trimethyl-1H-pyrazol-4-yl)-methyl]-2,8-diazaspiro[4.5]decane-2-carbonyl]-2,3-dihydro-1H-inden-1-yl]-benzamide] | 57
4 | O=C(NC1CCc2ccc(C(=O)N3CCC4(CCN(Cc5csnn5)CC4)C3)cc21)c1cc(C(F)(F)F)ccc1Cl (centres unmarked) [IND_CC-656, 2-Chloro-N-[6-[8-([1,2,3]thiadiazol-4-yl-methyl)-2,8-diazaspiro[4.5]decane-2-carbonyl]-2,3-dihydro-1H-inden-1-yl]-5-(trifluoromethyl)-benzamide] | 51
5 | Cc1nn(C)c(C)c1CN1CCC2(CC1)CCN(C(=O)c1ccc3c(c1)C(NC(=O)c1cc(C(F)(F)F)ccc1Cl)CC3)C2 (centres unmarked) [IND_CC-682, 2-Chloro-5-(trifluoromethyl)-N-[6-[8-[(1,3,5-trimethyl-1H-pyrazol-4-yl)-methyl]-2,8-diazaspiro[4.5]decane-2-carbonyl]-2,3-dihydro-1H-inden-1-yl]-benzamide] | 51
6 | O=C(NC1CCc2ccc(C(=O)N3CCC4(CC3)CCN(C(=O)c3ccc(F)cc3F)CC4)cc21)c1ccccc1Cl (centres unmarked) [IND_CC-600, 2-Chloro-N-[6-[9-(2,4-difluoro-benzoyl)-3,9-diazaspiro[5.5]undecane-3-carbonyl]-2,3-dihydro-1H-inden-1-yl]-benzamide] | 100
7 | O=C(NC1CCc2ccc(CC(=O)N3CCC4(CCN(Cc5ccc6nccnc6c5)CC4)C3)cc21)c1ccccc1Cl (centres unmarked) [IND_CC-805, 2-Chloro-N-[6-[2-oxo-2-[8-(quinoxalin-6-yl-methyl)-3,8-diazaspiro[4.5]decan-3-yl]-ethyl]-2,3-dihydro-1H-inden-1-yl]-benzamide] | 51
8 | O=C(NC1CCc2ccc(C(=O)N3CCC4(CCN(CCc5ccccc5)CC4)CC3)cc21)c1cc(Cl)ccc1F (centres unmarked) [IND_CC-681, 5-Chloro-2-fluoro-N-[6-(9-phenethyl-3,9-diazaspiro[5.5]undecane-3-carbonyl)-2,3-dihydro-1H-inden-1-yl]-benzamide] | 53
9 | O=C(NC1CCc2ccc(C(=O)N3CCC4(CCN(Cc5ccc6ncccc6c5)CC4)CC3)cc21)c1cc(C(F)(F)F)ccc1Cl (centres unmarked) [IND_CC-695, 2-Chloro-N-[6-[9-(quinolin-6-yl-methyl)-3,9-diazaspiro[5.5]undecane-3-carbonyl]-2,3-dihydro-1H-inden-1-yl]-5-(trifluoromethyl)-benzamide] | 100
10 | CN(C1CCc2ccc(C(=O)N3CCC4(CC3)CCN(c3ccncc3)CC4)cc21)S(=O)(=O)c1c(Cl)cc(C(F)(F)F)cc1Cl (centres unmarked) [IND_CC-403, 2,6-Dichloro-N-methyl-N-[6-(9-pyridin-4-yl-3,9-diazaspiro[5.5]undecane-3-carbonyl)-2,3-dihydro-1H-inden-1-yl]-4-(trifluoromethyl)-benzenesulfonic acid amide] | 97
11 | O=C(NC1CCc2ccc(C(=O)N3CCC4(CCN(Cc5ccc[nH]5)CC4)CC3)cc21)c1c(F)cccc1Cl (centres unmarked) [IND_CC-783, 2-Chloro-6-fluoro-N-[6-[9-(1H-pyrrol-2-yl-methyl)-3,9-diazaspiro[5.5]undecane-3-carbonyl]-2,3-dihydro-1H-inden-1-yl]-benzamide] | 102
12 | Cn1nc(C(C)(C)C)cc1C(=O)N1CCC2(CCN(C(=O)c3ccc4c(c3)C(NC(=O)c3ccccc3Cl)CC4)C2)CC1 (centres unmarked) [IND_CC-578, N-[6-[8-(5-tert-Butyl-2-methyl-2H-pyrazole-3-carbonyl)-2,8-diazaspiro-[4.5]decane-2-carbonyl]-2,3-dihydro-1H-inden-1-yl]-2-chloro-benzamide] | 79
13 | N#Cc1ccc(CN2CCC3(CC2)CCN(C(=O)c2ccc4c(c2)C(NC(=O)c2ccccc2Cl)CC4)CC3)cc1 (centres unmarked) [IND_CC-533, 2-Chloro-N-[6-[9-[(4-cyano-phenyl)-methyl]-3,9-diazaspiro[5.5]undecane-3-carbonyl]-2,3-dihydro-1H-inden-1-yl]-benzamide] | 74
14 | CC(C)S(=O)(=O)N1CCC2(CCN(C(=O)c3ccc4c(c3)C(NC(=O)c3ccccc3Cl)CC4)CC2)CC1 (centres unmarked) [IND_CC-613, 2-Chloro-N-[6-[9-(isopropylsulfonyl)-3,9-diazaspiro[5.5]undecane-3-carbonyl]-2,3-dihydro-1H-inden-1-yl]-benzamide] | 102
15 | O=C(NC1CCc2ccc(CC(=O)N3CCC4(CCN(CC5CCCCC5)CC4)C3)cc21)c1ccccc1Cl (centres unmarked) [IND_CC-807, 2-Chloro-N-[6-[2-[8-(cyclohexyl-methyl)-3,8-diazaspiro[4.5]decan-3-yl]-2-oxo-ethyl]-2,3-dihydro-1H-inden-1-yl]-benzamide] | 53
16 | Cn1nnc2cc(CN3CCC4(CC3)CCN(C(=O)c3ccc5c(c3)C(NC(=O)c3cccc(Cl)c3Cl)CC5)CC4)ccc21 (centres unmarked) [IND_CC-756, 2,3-Dichloro-N-[6-[9-[(1-methyl-1H-benzotriazol-5-yl)-methyl]-3,9-diazaspiro[5.5]undecane-3-carbonyl]-2,3-dihydro-1H-inden-1-yl]-benzamide] | 104
17 | COc1ccc(CN2CCC3(CC2)CCN(C(=O)c2ccc4c(c2)C(NC(=O)c2ccccc2Cl)CC4)C3)cc1F (centres unmarked) [IND_CC-545, 2-Chloro-N-[6-[8-[(3-fluoro-4-methoxy-phenyl)-methyl]-2,8-diazaspiro[4.5]decane-2-carbonyl]-2,3-dihydro-1H-inden-1-yl]-benzamide] | 105
18 | N#Cc1ccccc1C(=O)NC1CCc2ccc(C(=O)N3CCC4(CC3)CCN(c3ccc(C(F)(F)F)cc3)CC4)cc21 (centres unmarked) [IND_CC-235, 2-Cyano-N-[6-[9-[4-(trifluoromethyl)-phenyl]-3,9-diazaspiro[5.5]undecane-3-carbonyl]-2,3-dihydro-1H-inden-1-yl]-benzamide] | 89
19 | COc1ccc(CN2CCC3(CC2)CCN(C(=O)c2ccc4c(c2)C(N(C(=O)c2ccccc2Cl)C2CC2)CC4)C3)cc1F (centres unmarked) [IND_CC-524, 2-Chloro-N-cyclopropyl-N-[6-[8-[(3-fluoro-4-methoxy-phenyl)-methyl]-2,8-diazaspiro[4.5]decane-2-carbonyl]-2,3-dihydro-1H-inden-1-yl]-benzamide] | 62
20 | O=C(NC1CCc2ccc(C(=O)N3CCC4(CC3)CCN(c3ccncc3)C4)cc21)C1CCCC1 (centres unmarked) [IND_CC-393, N-[6-(2-Pyridin-4-yl-2,8-diazaspiro[4.5]decane-8-carbonyl)-2,3-dihydro-1H-inden-1-yl]-cyclopentanecarboxylic acid amide] | 103
21 | O=C(NC1CCc2ccc(C(=O)N3CCC4(CCN(C(=O)Nc5ccc(F)c(Cl)c5)CC4)C3)cc21)c1ccccc1Cl (centres unmarked) [IND_CC-502, 2-[3-[(2-Chloro-benzoyl)amino]-2,3-dihydro-1H-indene-5-carbonyl]-N-(3-chloro-4-fluoro-phenyl)-2,8-diazaspiro[4.5]decane-8-carboxylic acid amide] | 71
22 | O=C(NC1CCc2ccc(C(=O)N3CCC4(CCN(Cc5c(F)cccc5F)CC4)C3)cc21)c1cc(C(F)(F)F)ccc1Cl (centres unmarked) [IND_CC-632, 2-Chloro-N-[6-[8-[(2,6-difluoro-phenyl)-methyl]-2,8-diazaspiro[4.5]decane-2-carbonyl]-2,3-dihydro-1H-inden-1-yl]-5-(trifluoromethyl)-benzamide] | 64
23 | CCCC(=O)NC1CCc2ccc(C(=O)N3CCC4(CCN(c5ccncc5)CC4)C3)cc21 (centres unmarked) [IND_CC-411, N-[6-(8-Pyridin-4-yl-2,8-diazaspiro[4.5]decane-2-carbonyl)-2,3-dihydro-1H-inden-1-yl]-butyramide] | 101
24 | N#Cc1cccc(NC(=O)N2CCC3(CC2)CCN(C(=O)c2ccc4c(c2)C(NC(=O)c2ccccc2Cl)CC4)C3)c1 (centres unmarked) [IND_CC-503, 2-[3-[(2-Chloro-benzoyl)amino]-2,3-dihydro-1H-indene-5-carbonyl]-N-(3-cyano-phenyl)-2,8-diazaspiro[4.5]decane-8-carboxylic acid amide] | 66
25 | O=C(c1ccc2c(c1)C(NS(=O)(=O)Cc1cccc(Cl)c1)CC2)N1CCC2(CC1)CCN(c1ccncc1)CC2 (centres unmarked) [IND_CC-352, 1-(3-Chlorophenyl)-N-[6-(9-pyridin-4-yl-3,9-diazaspiro[5.5]undecane-3-carbonyl)-2,3-dihydro-1H-inden-1-yl]-methanesulfonic acid amide] | 98

Same assay, conditions: rat B1R

Row | Compound | % Inhibition (rat B1R) at 10 μM [%]
26 | N,3-Dimethyl-N-[6-(9-pyridin-4-yl-3,9-diazaspiro[5.5]undecane-3-carbonyl)-2,3-dihydro-1H-inden-1-yl]-butyramide [IND_CC-408] | 101
